Key:
CoA-IT = assay: Microsomal CoA-IT activity assay (U937 cell microsomes); assay type: biochemical; conditions: increased uM or longer pretreatment time
Text: The following is a method to measure CoA-IT activity and the effects of compounds on CoA-IT activity. The assay is based upon mixing cellular material containing CoA-IT activity with a stable lyso phospholipid such as 1-alkyl-2-acyl-GPC and measuring the production of phospholipid product such as 1-alkyl-2-acyl-GPC occurring in the absence of added CoA or CoA-fatty acids.
Any inflammatory cell that contains high levels of COA-IT activity can be used, such as neutrophils, macrophages or cell lines such as U937 cells. U937 cells were obtained from American Type Culture Collection and grown in RPMI- 1640 media (Gibco, Grand Island, N.Y.) supplemented with 10% fetal bovine serum (Hyclone, Logan, Utah) at 37° C., 5% CO2. Cells were grown without differentiation (basal state) by any agent, such as dimethyl sulfoxide.
Microsomes were prepared using standard techniques. […]
CoA-lT activity was measured in 1.5 ml centrifuge tubes in a total volume of 100 ul. […] An aliquot of the chloroform-extracted materials were separated, usually by TLC in chloroform/methanol/acetic acid/water (50:25:8:4, v/v), visualized by radioscanning (Bioscan) and the product, [^3 H]1-alkyl-2-acyl-GPC, was scraped and quantified by liquid scintillation spectroscopy. […]
Protein concentration were assessed using the protein assay reagents from Bio-Rad (Richmond, Calif.).

[1] = system: phorbol ester-induced inflammation in mouse ear; assay: TPA-induced mouse ear inflammation (ear edema and MPO); assay type: in vivo; conditions: topical, Balb/c mice
Method: Male Balb/c inbred mice were obtained from Charle River Breeding Laboratories (Kingston, N.Y.). Within a single experiment mice (22-25 g) were age-matched. These in vivo experiments typically involved use of 5-6 animals/group.
TPA (12-O-tetradecanoylphorbol 13-acetate) (Sigma Chemical Company) in acetone ([…]) was applied to the inner and outer surfaces of the left ear of BALB/c male mice. The thickness of both ears was then measured with a dial micrometer (Mitutoyo, Japan) at both 2 and 4 hours after treatment, and the data expressed as the change in thickness (10^-3 cm) between treated and untreated ears. […] After measuring the edema, the inflammed left ears were removed and stored at -70° C. until they were assayed for MPO (myeloperoxidase) activity where appropriate.
On the day of the assay, partially thawed ear tissues were minced and then homogenized (10% w/v) with a Tissumnizer homogenizer (Tekmar Co.) in 50 mM phosphate buffer (pH 6) containing 0.5% HTAB. […] Supernatant MPO activity was quantified kinetically (change in absorbance measured over 3 min, sampled at 15-sec intervals) using a Beckman DU-7 spectrophotometer and a Kinetics Analysis package (Beckman Instruments, Inc.). […]
Balb/c mice were given PMA followed by the test compound. The edematous response was measured using a thickness gauge 4 hrs post PMA application. […]

| SMILES | activity in CoA-IT assay at increased concentration or longer pretreatment (CoA-IT) | Edema @ 4 hr ED50 ([1]; 4 hrs post PMA application) [mg/ear] | MPO response ED50 ([1]; inflamed ears harvested after the 4 hr edema measurement) [mg/ear] |
| --- | --- | --- | --- |
| COC(=O)CCCO[C@@H]1NC(=O)[C@H]1NC(c1ccccc1)(c1ccccc1)c1ccccc1 [Example 17, (3S,4S)-4-[3-(Methoxycarbonyl)propoxy]-3-(triphenylmethylamino)azetidin-2-one] | active at either increased uM or longer pretreatment time |  |  |
| C[C@@H]1C[C@H]2[C@@H]3CCC4=CC(=O)C=C[C@]4(C)[C@@]3(F)[C@@H](O)C[C@]2(C)[C@@]1(O)C(=O)CO [dexamethasone, reference compound] |  | 0.06 | 0.03 |
